{"source": "ChEMBL document CHEMBL1128242", "about": "“Polyiodinated triglyceride analogs as potential computed tomography imaging agents for the liver” (J Med Chem, 1995)", "key": {"[1]": {"system": "Rattus norvegicus", "assay": "Polyacrylamide Gel Electrophoresis (PAGE) to determined the concentration of high density lipoprotein (HDL) in rats after iv administration of [125I]-labeled 2-Oleolyl 1,3-disubstituted triglycerols was reported", "assay_type": "ADME, organism-based", "settings": "in vivo"}, "[2]": {"system": "Rattus norvegicus", "assay": "Polyacrylamide Gel Electrophoresis (PAGE) to determined the concentration of albumin(ALB) in rats after iv administration of [125I]-labeled 2-Oleolyl 1,3-disubstituted triglycerols was reported", "assay_type": "ADME, organism-based", "settings": "in vivo"}, "[3]": {"system": "Rattus norvegicus", "assay": "Distribution of radioactivity was determined in heart at 3h after intravenous administration of [125I]-labeled 2-oleoglycerol 1,3-Bis-[omega-(3-amino-2,4,6-triiodophenyl)alkanoates] in rats", "assay_type": "ADME, organism-based", "settings": "in vivo"}, "[4]": {"system": "Rattus norvegicus", "assay": "Distribution of radioactivity was determined in spleen at 48 hr after intravenous administration of 1,3-Disubstituted Triacylglycerols in rats", "assay_type": "ADME, organism-based", "settings": "in vivo"}, "[5]": {"system": "Rattus norvegicus", "assay": "Polyacrylamide Gel Electrophoresis (PAGE) to determined the concentration of below albumin(BA) in rats after iv administration of [125I]-labeled 2-Oleolyl 1,3-disubstituted triglycerols was reported", "assay_type": "ADME, organism-based", "settings": "in vivo"}, "[6]": {"system": "Rattus norvegicus", "assay": "Distribution of radioactivity was determined in thyroid at 24 hr after intravenous administration of [125I]-labeled 2-oleoglycerol 1,3-Bis-[omega-(3-amino-2,4,6-triiodophenyl)alkanoates] in rats", "assay_type": "ADME, organism-based, Thyroid gland", "settings": "in vivo"}, "[7]": {"system": "Rattus norvegicus", "assay": "Distribution of radioactivity was determined in spleen at 24 hr after intravenous administration of [125I]-labeled 2-oleoglycerol 1,3-Bis-[omega-(3-amino-2,4,6-triiodophenyl)alkanoates] in rats", "assay_type": "ADME, organism-based", "settings": "in vivo"}, "[8]": {"system": "Rattus norvegicus", "assay": "Distribution of radioactivity was determined in liver at 30 min after intravenous administration of 1,3-Disubstituted Triacylglycerols in rats", "assay_type": "ADME, organism-based", "settings": "in vivo, 0.5 h"}, "[9]": {"system": "Rattus norvegicus", "assay": "Analysis of lipid-soluble radioactivity in liver 0.5 hour after iv administration of [125I]-labeled 2-Oleoyl 1,3-disubstituted Triacylglycerols expressed as %parent compound (by TLC with authentic [125I]-labeled standard) from rat", "assay_type": "ADME, organism-based", "settings": "in vivo"}, "[10]": {"system": "Rattus norvegicus", "assay": "Distribution of radioactivity was determined in lung at 24 hr after intravenous administration of [125I]-labeled 2-oleoglycerol 1,3-Bis-[omega-(3-amino-2,4,6-triiodophenyl)alkanoates] in rats", "assay_type": "ADME, organism-based", "settings": "in vivo"}, "[11]": {"system": "Rattus norvegicus", "assay": "Distribution of radioactivity was determined in blood at 30 min after intravenous administration of [125I]-labeled 2-oleoglycerol 1,3-Bis-[omega-(3-amino-2,4,6-triiodophenyl)alkanoates] in rats", "assay_type": "ADME, organism-based", "settings": "in vivo, 0.5 h"}, "[12]": {"system": "Rattus norvegicus", "assay": "Analysis of lipid-soluble radioactivity in liver 24 hour after iv administration of [125I]-labeled 2-Oleoyl 1,3-disubstituted Triacylglycerols and represented as % CHCl3/CH3OH from rat", "assay_type": "ADME, organism-based", "settings": "in vivo"}, "[13]": {"system": "Rattus norvegicus", "assay": "Distribution of radioactivity was determined in heart at 30 min after intravenous administration of [125I]-labeled 2-oleoglycerol 1,3-Bis-[omega-(3-amino-2,4,6-triiodophenyl)alkanoates] in rats", "assay_type": "ADME, organism-based", "settings": "in vivo, 0.5 h"}, "[14]": {"system": "Rattus norvegicus", "assay": "Distribution of radioactivity was determined in blood at 48 hr after intravenous administration of 1,3-Disubstituted Triacylglycerols in rats", "assay_type": "ADME, organism-based", "settings": "in vivo"}, "[15]": {"system": "Rattus norvegicus", "assay": "Distribution of radioactivity was determined in liver at 48 hr after intravenous administration of 1,3-Disubstituted Triacylglycerols in rats", "assay_type": "ADME, organism-based", "settings": "in vivo"}, "[16]": {"system": "Rattus norvegicus", "assay": "Distribution of radioactivity was determined in spleen at 3h after intravenous administration of [125I]-labeled 2-oleoglycerol 1,3-Bis-[omega-(3-amino-2,4,6-triiodophenyl)alkanoates] in rats", "assay_type": "ADME, organism-based", "settings": "in vivo"}, "[17]": {"system": "Rattus norvegicus", "assay": "Analysis of lipid-soluble radioactivity in plasma 0.5 hour after iv administration of [125I]-labeled 2-Oleoyl 1,3-disubstituted Triacylglycerols and represented as % CHCl3/CH3OH from rat", "assay_type": "ADME, organism-based", "settings": "in vivo"}, "[18]": {"system": "Rattus norvegicus", "assay": "Analysis of lipid-soluble radioactivity in plasma 24 hour after iv administration of [125I]-labeled 2-Oleoyl 1,3-disubstituted Triacylglycerols and represented as % CHCl3/CH3OH from rat", "assay_type": "ADME, organism-based", "settings": "in vivo"}, "[19]": {"system": "Rattus norvegicus", "assay": "Analysis of lipid-soluble radioactivity in liver 0.5 hour after iv administration of [125I]-labeled 2-Oleoyl 1,3-disubstituted Triacylglycerols and represented as % CHCl3/CH3OH from rat", "assay_type": "ADME, organism-based", "settings": "in vivo"}, "[20]": {"system": "Rattus norvegicus", "assay": "Distribution of radioactivity was determined in liver at 30 min after intravenous administration of [125I]-labeled 2-oleoglycerol 1,3-Bis-[omega-(3-amino-2,4,6-triiodophenyl)alkanoates] in rats", "assay_type": "ADME, organism-based", "settings": "in vivo, 0.5 h"}, "[21]": {"system": "Rattus norvegicus", "assay": "Distribution of radioactivity was determined in lung at 30 min after intravenous administration of [125I]-labeled 2-oleoglycerol 1,3-Bis-[omega-(3-amino-2,4,6-triiodophenyl)alkanoates] in rats", "assay_type": "ADME, organism-based", "settings": "in vivo, 0.5 h"}, "[22]": {"system": "Rattus norvegicus", "assay": "Distribution of radioactivity was determined in liver at 24 hr after intravenous administration of 1,3-Disubstituted Triacylglycerols in rats", "assay_type": "ADME, organism-based", "settings": "in vivo"}, "[23]": {"system": "Rattus norvegicus", "assay": "Distribution of radioactivity was determined in spleen at 24 hr after intravenous administration of 1,3-Disubstituted Triacylglycerols in rats", "assay_type": "ADME, organism-based", "settings": "in vivo"}, "[24]": {"system": "Rattus norvegicus", "assay": "Analysis of lipid-soluble radioactivity in liver 24 hour after iv administration of [125I]-labeled 2-Oleoyl 1,3-disubstituted Triacylglycerols expressed as %parent compound (by TLC with authentic [125I]-labeled standard) from rat", "assay_type": "ADME, organism-based", "settings": "in vivo"}, "[25]": {"system": "Rattus norvegicus", "assay": "Distribution of radioactivity was determined in kidney at 3h after intravenous administration of [125I]-labeled 2-oleoglycerol 1,3-Bis-[omega-(3-amino-2,4,6-triiodophenyl)alkanoates] in rats", "assay_type": "ADME, organism-based", "settings": "in vivo"}, "[26]": {"system": "Rattus norvegicus", "assay": "Distribution of radioactivity was determined in blood at 3h after intravenous administration of [125I]-labeled 2-oleoglycerol 1,3-Bis-[omega-(3-amino-2,4,6-triiodophenyl)alkanoates] in rats", "assay_type": "ADME, organism-based", "settings": "in vivo"}, "[27]": {"system": "Rattus norvegicus", "assay": "Distribution of radioactivity was determined in thyroid at 3h after intravenous administration of [125I]-labeled 2-oleoglycerol 1,3-Bis-[omega-(3-amino-2,4,6-triiodophenyl)alkanoates] in rats", "assay_type": "ADME, organism-based, Thyroid gland", "settings": "in vivo"}, "[28]": {"system": "Rattus norvegicus", "assay": "Distribution of radioactivity was determined in kidney at 24 hr after intravenous administration of [125I]-labeled 2-oleoglycerol 1,3-Bis-[omega-(3-amino-2,4,6-triiodophenyl)alkanoates] in rats", "assay_type": "ADME, organism-based", "settings": "in vivo"}, "[29]": {"system": "Rattus norvegicus", "assay": "Distribution of radioactivity was determined in liver at 3h after intravenous administration of 1,3-Disubstituted Triacylglycerols in rats", "assay_type": "ADME, organism-based", "settings": "in vivo"}, "[30]": {"system": "Rattus norvegicus", "assay": "Distribution of radioactivity was determined in heart at 24 after intravenous administration of [125I]-labeled 2-oleoglycerol 1,3-Bis-[omega-(3-amino-2,4,6-triiodophenyl)alkanoates] in rats", "assay_type": "ADME, organism-based", "settings": "in vivo"}, "[31]": {"system": "Rattus norvegicus", "assay": "Distribution of radioactivity was determined in plasma at 30 min after intravenous administration of [125I]-labeled 2-oleoglycerol 1,3-Bis-[omega-(3-amino-2,4,6-triiodophenyl)alkanoates] in rats", "assay_type": "ADME, organism-based", "settings": "in vivo, 0.5 h"}, "[32]": {"system": "Rattus norvegicus", "assay": "Distribution of radioactivity was determined in thyroid at 30 min after intravenous administration of [125I]-labeled 2-oleoglycerol 1,3-Bis-[omega-(3-amino-2,4,6-triiodophenyl)alkanoates] in rats", "assay_type": "ADME, organism-based, Thyroid gland", "settings": "in vivo, 0.5 h"}, "[33]": {"system": "Rattus norvegicus", "assay": "Distribution of radioactivity was determined in lung at 3h after intravenous administration of [125I]-labeled 2-oleoglycerol 1,3-Bis-[omega-(3-amino-2,4,6-triiodophenyl)alkanoates] in rats", "assay_type": "ADME, organism-based", "settings": "in vivo"}, "[34]": {"system": "Rattus norvegicus", "assay": "Distribution of radioactivity was determined in spleen at 3h after intravenous administration of 1,3-Disubstituted Triacylglycerols in rats", "assay_type": "ADME, organism-based", "settings": "in vivo"}, "[35]": {"system": "Rattus norvegicus", "assay": "Distribution of radioactivity was determined in liver at 24 hr after intravenous administration of [125I]-labeled 2-oleoglycerol 1,3-Bis-[omega-(3-amino-2,4,6-triiodophenyl)alkanoates] in rats", "assay_type": "ADME, organism-based", "settings": "in vivo"}}, "note": "Where “and” joins values, the source holds several entries; their conditions need not be identical. Equal entries are not always repeated."}
{"molecule": "CCCCCCCC/C=C/CCCCCCCC(=O)OC(COC(=O)Cc1c(I)cc(I)c(N)c1I)COC(=O)Cc1c(I)cc(I)c(N)c1I", "values": [{"measurement": "Radioactivity", "setting": "[1]", "result": 0.7, "unit": "%"}, {"measurement": "Radioactivity", "setting": "[2]", "result": 1.8, "unit": "%"}, {"measurement": "Distribution of radioactivity", "setting": "[3]", "result": 0.1, "unit": "% dose/g"}, {"measurement": "Distribution of radioactivity", "setting": "[4]", "result": 16.6, "unit": "% dose per organ"}, {"measurement": "Radioactivity", "setting": "[5]", "result": 1.1, "unit": "%"}, {"measurement": "Distribution of radioactivity", "setting": "[6]", "result": 2.58, "unit": "% dose/g"}, {"measurement": "Distribution of radioactivity", "setting": "[7]", "result": 24.2, "unit": "% dose/g"}, {"measurement": "Radioactivity per organ", "setting": "[8]", "result": 69.8, "unit": "% dose/organ"}, {"measurement": "Lipid-soluble radioactivity", "setting": "[9]", "result": 85.1}, {"measurement": "Distribution of radioactivity", "setting": "[10]", "result": 0.52, "unit": "% dose/g"}, {"measurement": "Distribution of radioactivity", "setting": "[11]", "result": 0.69, "unit": "% dose/g"}, {"measurement": "Lipid-soluble radioactivity", "setting": "[12]", "result": 59.5}, {"measurement": "Distribution of radioactivity", "setting": "[13]", "result": 0.36, "unit": "% dose/g"}, {"measurement": "Distribution of radioactivity", "setting": "[14]", "result": 0.1, "unit": "% dose per organ"}, {"measurement": "Distribution of radioactivity", "setting": "[15]", "result": 59.7, "unit": "% dose/organ"}, {"measurement": "Distribution of radioactivity", "setting": "[16]", "result": 23.6, "unit": "% dose/g"}, {"measurement": "Lipid-soluble radioactivity", "setting": "[17]", "result": "54.2 and 86.3"}, {"measurement": "Lipid-soluble radioactivity", "setting": "[18]", "result": 24.4}, {"measurement": "Lipid-soluble radioactivity", "setting": "[19]", "result": 62.6}, {"measurement": "Distribution of radioactivity", "setting": "[20]", "result": 7.9, "unit": "% dose/g"}, {"measurement": "Distribution of radioactivity", "setting": "[21]", "result": 0.72, "unit": "% dose/g"}, {"measurement": "Distribution of radioactivity", "setting": "[22]", "result": 72.5, "unit": "% dose/organ"}, {"measurement": "Distribution of radioactivity", "setting": "[23]", "result": 12.2, "unit": "% dose/organ"}, {"measurement": "Lipid-soluble radioactivity", "setting": "[24]", "result": 87.5}, {"measurement": "Distribution of radioactivity", "setting": "[25]", "result": 0.04, "unit": "% dose/g"}, {"measurement": "Distribution of radioactivity", "setting": "[26]", "result": 0.04, "unit": "% dose/g"}, {"measurement": "Distribution of radioactivity", "setting": "[27]", "result": 0.27, "unit": "% dose/g"}, {"measurement": "Distribution of radioactivity", "setting": "[28]", "result": 0.07, "unit": "% dose/g"}, {"measurement": "Distribution of radioactivity", "setting": "[29]", "result": 79, "unit": "% dose/organ"}, {"measurement": "Distribution of radioactivity", "setting": "[30]", "result": 0.03, "unit": "% dose/g"}, {"measurement": "Distribution of radioactivity", "setting": "[31]", "result": 1.25, "unit": "% dose/g"}, {"measurement": "Distribution of radioactivity", "setting": "[32]", "result": 0.16, "unit": "% dose/g"}, {"measurement": "Distribution of radioactivity", "setting": "[33]", "result": 0.38, "unit": "% dose/g"}, {"measurement": "Distribution of radioactivity", "setting": "[34]", "result": 14.5, "unit": "% dose/organ"}, {"measurement": "Distribution of radioactivity", "setting": "[35]", "result": 9.09, "unit": "% dose/g"}]}
